In patent US6197982A, “Vitamin D analogues” (priority 1996, dated 2001):
Entries after “also recorded” stand apart in the source; their conditions may differ. Where two headings read alike, the source gives them in different places.

How the values were obtained:
[1] = test system: HaCaT, human skin keratinocyte cell line; assay: HaCaT antiproliferative assay, 3H-thymidine uptake; assay type: cell-based; conditions: for inhibition at 0.1 µM: Homo sapiens, HaCaT, read-out: HaCaT, max. % (maximal inhibition of the cell proliferation); for inhibition at 0.1 µM / maximal inhibition in HaCaT, in words: at 10^-7 M; for maximal inhibition in HaCaT, in words / potency in the HaCaT-assay (psoriasis model), in words: compared with 1,25(OH)2 D3; for HaCaT rel. (ratio between the IC50 value of 1,25(OH)2 D3 and the IC50 value of the compound): relative to 1,25(OH)2 D3, 3H-thymidine incorporation, >1 = more active
From the text: (§1) .sunburst. The values are relative to 1,25 (OH)2 D3; a value
(§2) H-thymidine incorporation compared to controls.
.cndot. "HaCaT, max %" indicates the maximal inhibition of the cell
proliferation (maximal efficacy) which is obtainable at the higher
concentration of 10^-7 M of a compound.

[2] = calcemic activity in rats in vivo; set-up: species or system rat; key to Calc. rel. (calcemic activity relative to 1,25(OH)2 D3): calcemic activity relative to 1,25(OH)2D3 (=1); conditions: for calcemic activity, in words: compared with 1,25(OH)2 D3; for Calc. rel. (calcemic activity relative to 1,25(OH)2 D3): rats in vivo, low values preferred
Description: The calcemic activity of the compounds was determined in rats in vivo, as previously described. In table 1, column "Calc., rel.", the calcemic activities of selected compounds (relative to 1,25(OH)2 D3) are listed; as mentioned, low values for the compounds of the present invention are ordinarily preferred.
as §1

[3] = test system: mouse spleen lymphocytes; assay: mixed lymphocyte reaction (MLR), 3H-thymidine incorporation; assay type: cell-based, mouse (BALB/c and CB6F1); conditions: for immunosuppressive activity (MLR), in words: also in comparison with prior art reference compounds; for MLR rel. (ratio between the IC50 value of 1,25(OH)2 D3 and the IC50 value of the compound): relative to 1,25(OH)2 D3, 72 hours, >1 = more active
Description: The mixed cultures of lymphocytes are incubated with the test compounds for 72 hours. Cellular DNA-synthesis is assessed by the incorporation of ^3 H-thymidine in the D
as §1, §2

[4] = test system: skin allograft; conditions: mice; cited from earlier work
[5] = test system: breast cancer cells; conditions: in vitro; cited from earlier work
[6] = test system: breast cancer cells; conditions: cited from earlier work
[7] = test system: type I diabetes, non-obese diabetic (NOD) mouse; conditions: cited from earlier work
[8] = test system: transcriptional activity; conditions: compared to 1,25(OH)2 D3; cited from earlier work
[9] = test system: autoimmune disease recurrence in NOD mice; conditions: cited from earlier work
[10] = in vivo; cited from earlier work
[11] = test system: calcium metabolism; conditions: in vivo, cited from earlier work
[12] = test system: psoriasis; conditions: cited from earlier work
[13] = test system: graft rejection; conditions: cited from earlier work

## C=C1/C(=C\C=C2/CCC[C@]3(C)[C@@H]([C@@H](C)C(CCC(C)(C)O)OC)CC[C@@H]23)C[C@@H](O)C[C@@H]1O (single isomer, unassigned) [Compound 101]
[1]
  inhibition at 0.1 µM: 92%
  maximal inhibition in HaCaT, in words: the same, or higher, maximal inhibition at 10^-7 M as 1,25(OH)2 D3
  potency in the HaCaT-assay (psoriasis model), in words: considerably more potent than 1,25(OH)2 D3
  HaCaT rel. (ratio between the IC50 value of 1,25(OH)2 D3 and the IC50 value of the compound): 28
[2]
  calcemic activity, in words: only about half as large as that of 1,25(OH)2 D3
  Calc. rel. (calcemic activity relative to 1,25(OH)2 D3): 0.45
[3]
  immunosuppressive activity (MLR), in words: potent effects
  MLR rel. (ratio between the IC50 value of 1,25(OH)2 D3 and the IC50 value of the compound): 175

## C=C1/C(=C\C=C2/CCC[C@]3(C)[C@@H]([C@@H](C)C(CCC(C)(C)O)OCC)CC[C@@H]23)C[C@@H](O)C[C@@H]1O (single isomer, unassigned) [Compound 102]
[1]
  inhibition at 0.1 µM: 85%
  maximal inhibition in HaCaT, in words: the same, or higher, maximal inhibition at 10^-7 M as 1,25(OH)2 D3
  potency in the HaCaT-assay (psoriasis model), in words: considerably more potent than 1,25(OH)2 D3
  HaCaT rel. (ratio between the IC50 value of 1,25(OH)2 D3 and the IC50 value of the compound): 137
[2]
  calcemic activity, in words: only about half as large as that of 1,25(OH)2 D3
  Calc. rel. (calcemic activity relative to 1,25(OH)2 D3): 0.50
[3]
  immunosuppressive activity (MLR), in words: potent effects
  MLR rel. (ratio between the IC50 value of 1,25(OH)2 D3 and the IC50 value of the compound): 161

## C=C1/C(=C\C=C2/CCC[C@]3(C)[C@@H]([C@@H](C)C(O)CCC(C)(C)O)CC[C@@H]23)C[C@@H](O)C[C@@H]1O (stereo partly drawn) [CB1297]
[1]
  inhibition at 0.1 µM: 75%
  HaCaT rel. (ratio between the IC50 value of 1,25(OH)2 D3 and the IC50 value of the compound): 45
[3]
  MLR rel. (ratio between the IC50 value of 1,25(OH)2 D3 and the IC50 value of the compound): 12

## C=C1/C(=C\C=C2/CCC[C@]3(C)[C@@H]([C@H](C)CCCCC(O)(CC)CC)CC[C@@H]23)C[C@@H](O)C[C@@H]1O [CB 966]
[4]
  skin allograft survival / immunosuppression: prolonged skin allograft survival in mice

## C=C1/C(=C\C=C2/CCC[C@]3(C)[C@@H]([C@H](C)/C=C/C=C/C(O)(CC)CC)CC[C@@H]23)C[C@@H](O)C[C@@H]1O [EB 1089]
[5]
  growth of breast cancer cells: inhibits the growth of breast cancer cells in vitro
[6]
  growth of breast cancer cells: inhibits the growth of breast cancer cells in vitro and in vivo
[6]; in vivo
  selectivity between the anti-cancer and the calcemic effects: definite selectivity between the anti-cancer and the calcemic effects in vivo

## C=C1/C(=C\C=C2/CCC[C@]3(C)[C@@H]([C@@H](C)C(O)C#CC(O)(CC)CC)CC[C@@H]23)C[C@@H](O)C[C@@H]1O (stereo partly drawn) [GS1535]
[1]
  inhibition at 0.1 µM: 82%
  HaCaT rel. (ratio between the IC50 value of 1,25(OH)2 D3 and the IC50 value of the compound): 313
[2]
  Calc. rel. (calcemic activity relative to 1,25(OH)2 D3): 8.2
[3]
  MLR rel. (ratio between the IC50 value of 1,25(OH)2 D3 and the IC50 value of the compound): 13

## C=C1/C(=C\C=C2/CCC[C@]3(C)[C@@H]([C@@H](C)C(C#CC(O)(CC)CC)OCC)CC[C@@H]23)C[C@@H](O)C[C@@H]1O (stereo partly drawn) [GS1720]
[1]
  inhibition at 0.1 µM: 70%
  HaCaT rel. (ratio between the IC50 value of 1,25(OH)2 D3 and the IC50 value of the compound): 3.9
[2]
  Calc. rel. (calcemic activity relative to 1,25(OH)2 D3): 1.2
[3]
  MLR rel. (ratio between the IC50 value of 1,25(OH)2 D3 and the IC50 value of the compound): 36

## C=C1/C(=C\C=C2/CCC[C@]3(C)[C@@H]([C@@H](C)C(C#CC(O)(CC)CC)OC)CC[C@@H]23)C[C@@H](O)C[C@@H]1O (stereo partly drawn) [GS1725]
[1]
  inhibition at 0.1 µM: 96%
  HaCaT rel. (ratio between the IC50 value of 1,25(OH)2 D3 and the IC50 value of the compound): 4.4
[2]
  Calc. rel. (calcemic activity relative to 1,25(OH)2 D3): 12
[3]
  MLR rel. (ratio between the IC50 value of 1,25(OH)2 D3 and the IC50 value of the compound): 150

## C=C1/C(=C\C=C2/CCC[C@]3(C)[C@@H]([C@@H](C)OCCCC(O)(CC)CC)CC[C@@H]23)C[C@@H](O)C[C@@H]1O [KH 1060, 20-epi-22-oxa-25,26,27-trihomo-1,25-(OH)2 D3]
[4]
  hypercalcemia / serum calcium: induced hypercalcemia in the highest, and most effective, dose
  skin allograft survival / immunosuppression: prolonged skin allograft survival in mice; also recorded: most potent immunosuppressor
[7]
  effect on calcium and bone: only slight
  immunoregulation in type I diabetes: effective immunoregulator
[8]
  transcriptional activity: enhanced transcriptional activity
[9]
  toxicity: toxic in the most effective high doses
[9]; islet transplantation
  delaying autoimmune disease recurrence: very effective in delaying autoimmune disease recurrence

## C=C1/C(=C\C=C2/CCC[C@]3(C)[C@@H]([C@H](C)/C=C/[C@@H](O)C4CC4)CC[C@@H]23)C[C@@H](O)C[C@@H]1O [MC903]
[1]
  inhibition at 0.1 µM: 78%
  HaCaT rel. (ratio between the IC50 value of 1,25(OH)2 D3 and the IC50 value of the compound): 1.8
[10]
  metabolism: rapid metabolism
[11]
  activity on calcium metabolism: only moderate activity on calcium metabolism in vivo
[11]; listed as Calcipotriol
  activity on calcium metabolism: low in vivo activity on calcium metabolism
[2]
  Calc. rel. (calcemic activity relative to 1,25(OH)2 D3): 0.005
[12]; psoriasis patients
  hypercalcemia in patients: without hypercalcemia
[12]; without hypercalcemia, psoriasis
  improvement, % of the patients: 70-80%
[3]
  MLR rel. (ratio between the IC50 value of 1,25(OH)2 D3 and the IC50 value of the compound): 0.6

## C=C1/C(=C\C=C2/CCC[C@]3(C)[C@@H]([C@@H](C)CCCC(C)(C)O)CC[C@@H]23)C[C@@H](O)C[C@@H]1O [MC1288, 20-epi-1,25(OH)2 D3]
[1]
  inhibition at 0.1 µM: 76%
  HaCaT rel. (ratio between the IC50 value of 1,25(OH)2 D3 and the IC50 value of the compound): 43
[13]; rat heart and small bowel transplantation
  immunosuppression / prevention of graft rejection: effective as an immunosuppressant in a rat model of heart and small bowel transplantations, preventing graft rejection; also recorded: valuable immunosuppressive activity in animal transplantation experiments
[13]; rat transplantation model
  serum calcium level: moderately increased
[4]
  hypercalcemia / serum calcium: less hypercalcemic than KH 1060
  skin allograft survival / immunosuppression: very effective
[8]
  transcriptional activity: enhanced transcriptional activity
[2]
  Calc. rel. (calcemic activity relative to 1,25(OH)2 D3): 2.5
[3]
  MLR rel. (ratio between the IC50 value of 1,25(OH)2 D3 and the IC50 value of the compound): 150
